Measured values from article PMC10580381 (ACS Pharmacology & Translational Science, 2023).

Legend:
Bim (BCL2L11) = test: Real-time PCR of Bim expression in H1975; format: cell-based, human; conditions: H1975, 24 h, flunarizine 2.5, 5, or 10 μM or SAHA 0.25, 0.5, or 1 μM; all concentrations tested
Protocol: (§1) Reverse transcription was performed using 1 μg of total RNA sample with the PrimeScript First Strand cDNA Synthesis Kit (TaKaRa Biomedical Technology) at 37 °C for 10 min. The cDNA was then amplified by real-time PCR to determine the relative expression of p27^Kip1 and BIM using the KAPA SYBR FAST qPCR kit (KapaBiosystems, Wilmington, Massachusetts) with a LightCycler 480 Instrument I instrument (Roche Applied Science, Indianapolis, Indiana). The house-keeping gene GAPDH was also measured for normalization. Specific primer sequences used in the PCR reactions are p27^Kip1, forward 5′-[…]-3′ and reverse 5′-[…]-3′; Bim, forward 5′-[…]-3′ and reverse 5′-[…]-3′; and GAPDH, forward 5′-[…]-3′ and reverse 5′-[…]-3′. The PCR temperature program was set at 95 °C for 5 min, followed by 35 cycles of 95 °C for 10 s and 60 °C for 10 s. The fluorescent signal was detected at the end of the PCR elongation step of every cycle to keep track of the amount of amplified DNA. ΔCt was calculated by subtracting the Ct of GAPDH from the Ct of Bim or p27^Kip1. Fold change in gene expression was analyzed by the 2^–ΔΔCt method.

p27^Kip1 (CDKN1B) = test: Real-time PCR of p27^Kip1 expression in H1975; format: cell-based, human; conditions: H1975, 24 h, flunarizine 2.5, 5, or 10 μM or SAHA 0.25, 0.5, or 1 μM; all concentrations tested
Protocol: as §1

[1] = cited from earlier work
[2] = tested on: histone H3 acetylation (Lys 9,14) (AcH3); test: Western blot of histone H3 acetylation (AcH3) in H1975 cells; format: cell-based, human; conditions: 10 μM, 24 h (Figure 1A,B)
Protocol: An increase of histone acetylation is a well-characterized hallmark of HDAC inhibition. […] After the cancer cells were treated with the designated drug candidates, they were harvested in lysis buffer (0.05 M HEPES, 0.15 M NaCl, 2 mM EDTA, 10% v/v glycerol, and 1% v/v Triton X-100, pH 7.4) supplemented with protease and phosphatase inhibitors. Sodium dodecyl sulfate poly(acrylamide) gel electrophoresis (SDS-PAGE) was used to separate the different proteins in the whole cell lysates, which were then transferred to a poly(vinylidene difluoride) membrane for immunoblot analysis using different specific antibodies (acetylated histone H3, acetylated α-tubulin, histone H3, or GAPDH; Cell Signaling Technology). The bands corresponding to specific proteins of interest were visualized by using the WesternBright ECL HRP substrate (Advansta, San Jose, California). A chemiluminescent Western blot signal was detected and analyzed using a ChemiDoc MP system (Bio-Rad Laboratories, Hercules, California).

ABCB1 = ABCB1 (Homo sapiens, UniProt P08183); test: ABC transporter-mediated drug efflux assay, ABCB1 (rhodamine 123); conditions: PSC833 1 μM, control ABCB1 inhibitor, HEK293/ABCB1
ABCB1, sequence (P08183 whole entry, species assumed): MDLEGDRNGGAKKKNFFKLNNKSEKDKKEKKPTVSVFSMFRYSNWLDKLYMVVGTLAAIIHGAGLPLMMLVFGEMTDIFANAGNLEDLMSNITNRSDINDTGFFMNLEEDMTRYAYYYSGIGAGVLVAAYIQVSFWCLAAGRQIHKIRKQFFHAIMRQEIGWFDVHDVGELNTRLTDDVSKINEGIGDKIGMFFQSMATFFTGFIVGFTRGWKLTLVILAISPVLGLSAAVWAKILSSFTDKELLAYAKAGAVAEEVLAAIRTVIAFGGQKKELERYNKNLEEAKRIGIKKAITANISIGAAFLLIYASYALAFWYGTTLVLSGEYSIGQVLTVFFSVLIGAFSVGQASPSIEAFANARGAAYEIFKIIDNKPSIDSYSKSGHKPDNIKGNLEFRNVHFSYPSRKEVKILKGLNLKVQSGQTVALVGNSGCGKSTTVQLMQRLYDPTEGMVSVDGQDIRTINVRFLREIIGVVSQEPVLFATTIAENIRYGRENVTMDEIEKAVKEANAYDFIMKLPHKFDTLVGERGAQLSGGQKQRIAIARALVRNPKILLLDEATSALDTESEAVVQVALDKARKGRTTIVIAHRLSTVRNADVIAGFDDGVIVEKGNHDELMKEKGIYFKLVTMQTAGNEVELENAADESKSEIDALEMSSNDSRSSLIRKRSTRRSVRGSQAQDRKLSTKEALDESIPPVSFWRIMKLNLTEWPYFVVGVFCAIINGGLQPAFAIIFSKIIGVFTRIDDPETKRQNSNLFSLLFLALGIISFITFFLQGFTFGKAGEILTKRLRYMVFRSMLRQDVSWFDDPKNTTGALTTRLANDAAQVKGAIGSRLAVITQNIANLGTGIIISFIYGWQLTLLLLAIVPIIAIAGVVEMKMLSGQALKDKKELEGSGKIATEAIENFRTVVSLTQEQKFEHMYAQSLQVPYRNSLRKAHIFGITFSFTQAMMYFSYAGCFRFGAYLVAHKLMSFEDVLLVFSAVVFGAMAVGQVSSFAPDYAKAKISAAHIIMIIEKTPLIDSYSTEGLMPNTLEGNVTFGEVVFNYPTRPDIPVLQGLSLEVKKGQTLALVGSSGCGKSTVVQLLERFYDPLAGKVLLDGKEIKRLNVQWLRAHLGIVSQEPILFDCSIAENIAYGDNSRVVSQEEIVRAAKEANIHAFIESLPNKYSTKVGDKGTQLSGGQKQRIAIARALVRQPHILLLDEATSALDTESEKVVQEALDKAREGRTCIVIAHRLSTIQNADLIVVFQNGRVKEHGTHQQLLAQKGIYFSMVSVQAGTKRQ
Protocol: (§2) Specific inhibitors for ABCB1 (PSC833) and ABCG2 (FTC) were used as a control for comparison. Cells were analyzed by using a LSRFortessa cell analyzer (BD Biosciences). […] At least 10,000 events were collected for quantitative analysis.

ABCG2 = molecular target: T1, ABCG2 (Homo sapiens, UniProt Q9UNQ0); test: ABC transporter-mediated drug efflux assay, ABCG2 (pheophorbide A); conditions: FTC 1 μM, control ABCG2 inhibitor, HEK293/ABCG2
T1 sequence (Q9UNQ0 1-655): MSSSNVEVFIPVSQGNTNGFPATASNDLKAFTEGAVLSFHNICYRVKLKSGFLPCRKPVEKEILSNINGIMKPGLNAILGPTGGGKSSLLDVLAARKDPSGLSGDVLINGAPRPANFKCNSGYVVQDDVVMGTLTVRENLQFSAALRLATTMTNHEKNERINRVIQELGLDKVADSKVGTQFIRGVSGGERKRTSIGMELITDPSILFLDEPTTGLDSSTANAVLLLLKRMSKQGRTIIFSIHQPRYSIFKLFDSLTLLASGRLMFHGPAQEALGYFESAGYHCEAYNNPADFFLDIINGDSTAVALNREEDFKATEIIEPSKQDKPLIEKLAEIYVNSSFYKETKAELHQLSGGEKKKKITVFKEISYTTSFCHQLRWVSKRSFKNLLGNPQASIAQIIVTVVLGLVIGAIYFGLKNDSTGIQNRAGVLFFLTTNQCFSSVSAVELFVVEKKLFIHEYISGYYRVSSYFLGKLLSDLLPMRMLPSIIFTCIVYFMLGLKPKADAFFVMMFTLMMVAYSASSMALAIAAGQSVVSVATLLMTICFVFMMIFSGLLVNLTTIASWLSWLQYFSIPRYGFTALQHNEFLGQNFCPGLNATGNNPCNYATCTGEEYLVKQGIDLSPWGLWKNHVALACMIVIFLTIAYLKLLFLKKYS
Protocol: as §2

H1975 cells [3] = conditions: H1975, gefitinib 5 μM alone, 48 h
H820 cells [4] = conditions: H820, gefitinib 5 μM alone, 48 h
A549 cells = conditions: A549, gefitinib 5 μM alone, 48 h
Protocol: At least 10,000 events were acquired using a LSRFortessa cell analyzer, and the flow cytometric data were analyzed using BD FACSDiva software (BD Biosciences). Apoptotic cells were defined as the ones stained positive for both Annexin V-FITC and 7-AAD.

H820 cells [5] = tested on: H820 cells
in vivo = conditions: NOD SCID γ (NSG), mouse
Protocol: A Zorbax Eclipse XDB-C18 column (4.6 × 250 mm^2, 5 μm, Agilent Technologies) was used to achieve chromatographic separation of the analytes. An isocratic chromatographic system was used. The mobile phase was water:acetonitrile (35:65, v/v) with 0.1% formic acid at a flow rate of 0.25 mL/min. The injection volume of the sample was 10 μL. The triple quadrupole mass spectrometer was operated in positive electrospray ionization mode. The spray voltage was +3000 V, and the vaporizer temperature was 280 °C. The pressure of the collision gas was 1.0 mTorr.

H1975 cells [6] = tested on: H1975 cells

O=C(CCCCCCC(=O)Nc1ccccc1)NO [SAHA, Vorinostat]
Bim expression (Bim (BCL2L11)): significantly increase | p27^Kip1 expression (p27^Kip1 (CDKN1B)): significantly increase | elimination half-life [1]: ~2 h

Nc1nc(N)c2nc(-c3ccccc3)c(N)nc2n1 [triamterene]
fold increase in histone H3 acetylation (AcH3) over the vehicle control [2]: 75 ± 6 fold

C/C=C/C[C@@H](C)C(=O)[C@H]1C(=O)N[C@@H](C(C)C)C(=O)N(C)CC(=O)N(C)[C@@H](CC(C)C)C(=O)N[C@@H](C(C)C)C(=O)N(C)[C@@H](CC(C)C)C(=O)N[C@@H](C)C(=O)N[C@H](C)C(=O)N(C)[C@@H](CC(C)C)C(=O)N(C)[C@@H](CC(C)C)C(=O)N(C)[C@@H](C(C)C)C(=O)N1C [PSC833]
efflux of rhodamine 123 (ABCB1 substrate) (ABCB1): potently inhibited the efflux

C(=C\c1ccccc1)/CN1CCN(C(c2ccccc2)c2ccccc2)CC1 [cinnarizine]
fold increase in histone H3 acetylation (AcH3) over the vehicle control [2]: 15 ± 3 fold

COc1ccc2c3c([nH]c2c1)[C@H](C=C(C)C)N1C(=O)[C@@H]2CCCN2C(=O)[C@@H]1C3 [FTC]
efflux of pheophorbide A (ABCG2 substrate) (ABCG2): potently inhibited the efflux

COc1cc2ncnc(Nc3ccc(F)c(Cl)c3)c2cc1OCCCN1CCOCC1 [gefitinib]
apoptotic cell population (H1975 cells [3]): 8.9 ± 1.3% | apoptotic cell population (H820 cells [4]): 7.9 ± 1.6% | apoptotic cell population (A549 cells): 7.6 ± 0.9% | viability (H820 cells [5]): 66 ± 8% | concentration at 4 h (in vivo): 32 ± 6 nM | viability (H1650 cells): 52 ± 8% | viability (H1975 cells [6]): 61 ± 5%
